# How the values were obtained:
# [1] = tested on: bleomycin-induced pulmonary fibrosis; test: 21-day model of bleomycin-induced pulmonary fibrosis in mice; assay type: in vivo; conditions: day 21, oral gavage QD, 25 mg/kg pioglitazone, 100 mg/kg pamapimod, alone or in combination, p<0.05, t test; for lung weights normalized to body weights: vs. group 2 (bleomycin + vehicle); for fibrosis, group mean fibrotic index (modified Ashcroft score): vs. group 2 (fibrotic index 4.8)
# Protocol: Male C57BL/6 mice, six to seven weeks of age, were used for this study. Animals were weighed one day prior to study initiation and 60 animals were randomized into 6 groups (N=10/group) such that mean body weights were similar for the different groups. Food and water were provided ad libitum, with a 12-hour light/dark cycle.
# Treatment in groups 2-6 was initiated one day prior to bleomycin administration and continued though to the study end on day 21. On day -1, animals were dosed via oral gavage with vehicle control (0.5% methylcellulose; group 1 and group 2), pioglitazone at 25 mg/kg/dose (group 3), pamapimod at 100 mg/kg/dose (group 4), pioglitazone at 25 mg/kg/dose and pamapimod at 100 mg/kg/dose (group 5), pirfenidone at 100mg/kg/dose (group 6) and continued for 21 days. Pioglitazone and pamapimod were dosed once daily (QD) and pirfenidone was dosed twice daily (BID). On day 0, all mice in groups 2-6 received a single instillation of bleomycin to induce pulmonary fibrosis. Animals in group 1 (dosed with vehicle from days-1 to 21) were not instilled with bleomycin, but instead received a single dose of saline, and were considered sham negative control mice. Final drug treatments were administered 2-4 hours prior to study termination on day 21.
# Body weights, absolute lung weights, and lung weights normalized to body weights were measured for all mice on day 21 after bleomycin instillation, and were compared to bleomycin-instilled vehicle treated control mice. The post-caval lobes from the right lung were collected and snap frozen. The remaining lungs were fixed in 10% NBF and underwent histopathology analysis and evaluated for eseverity of fibrosis using a modified Ashcroft score.
# Vehicle (0.5% methylcellulose) and compounds were prepared weekly and stored at room temperature in the dark. All mice were dosed starting on day-1 until study termination on day 21 with a volume of 200 μl of vehicle or test compounds QD by oral gavage or 100 μl of pirfenidone BID by oral gavage. For groups receiving both pirfenidone and test compounds, pirfenidone was dosed 100 μl BID and test compounds were delivered in a total volume of 100 μl QD. […]
# The lung samples were processed and embedded with all lobes from each mouse in one paraffin block. […] A modified Ashcroft score (Hubner et al., 2008) was recorded for each field. The fibrotic index was calculated as the sum of the modified Ashcroft field scores divided by the number of fields examined. […]
# Endpoint data on day 21 is shown as the average Ashcroft score per experimental group, with standard error of the mean (SEM). Statistical differences (defined as p<0.05) between groups were analyzed using t-tests in Prism version 7.0 software (GraphPad, La Jolla, Calif.). […]
# [2] = tested on: cytokines and chemokines of the interleukin, TNF, C-C and C-X-C motif families; conditions: for adjusted significance (p) value, C-C Motif Chemokine Ligand 2 (Ccl2) / adjusted significance (p) value, C-C Motif Chemokine Ligand 3 (Ccl3) / adjusted significance (p) value, C-C Motif Chemokine Ligand 4 (Ccl4) / adjusted significance (p) value, C-C Motif Chemokine Ligand 7 (Ccl7) / adjusted significance (p) value, C-C Motif Chemokine Ligand 8 (Ccl8) / adjusted significance (p) value, C-C Motif Chemokine Ligand 12 (Ccl12) / adjusted significance (p) value, C-C Motif Chemokine Ligand 24 (Ccl24) / adjusted significance (p) value, C-X-C Motif Chemokine Ligand 3 (Cxcl3) / adjusted significance (p) value, C-X-C Motif Chemokine Ligand 5 (Cxcl5) / adjusted significance (p) value, C-X-C Motif Chemokine Ligand 10 (Cxcl10) / adjusted significance (p) value, Interleukin 6 (IL6) / adjusted significance (p) value, Interleukin 11 (IL11) / adjusted significance (p) value, Interleukin 12B (IL12b) / adjusted significance (p) value, Interleukin 18 Receptor 1 (IL18r1) / adjusted significance (p) value, TNF Receptor Superfamily Member 10b (Tnfrsf10b) / adjusted significance (p) value, TNF Receptor Superfamily Member 11b (Tnfrsf11b) / adjusted significance (p) value, TNF Superfamily Member 9 (Tnfsf9) / adjusted significance (p) value, TNF Superfamily Member 18 (Tnfsf18) / adjusted significance (p) value, Interleukin 36 Gamma (IL1f9) / adjusted significance (p) value, TNF Superfamily Member 15 (Tnfsf15): lung expression vs bleomycin alone group; for adjusted significance (p) value, C-C Motif Chemokine Ligand 2 (Ccl2) / adjusted significance (p) value, C-C Motif Chemokine Ligand 3 (Ccl3) / adjusted significance (p) value, C-C Motif Chemokine Ligand 4 (Ccl4) / adjusted significance (p) value, C-C Motif Chemokine Ligand 7 (Ccl7) / adjusted significance (p) value, C-C Motif Chemokine Ligand 8 (Ccl8) / adjusted significance (p) value, C-C Motif Chemokine Ligand 12 (Ccl12) / adjusted significance (p) value, C-C Motif Chemokine Ligand 24 (Ccl24) / adjusted significance (p) value, C-X-C Motif Chemokine Ligand 3 (Cxcl3) / adjusted significance (p) value, C-X-C Motif Chemokine Ligand 5 (Cxcl5) / adjusted significance (p) value, C-X-C Motif Chemokine Ligand 10 (Cxcl10) / adjusted significance (p) value, Interleukin 6 (IL6) / adjusted significance (p) value, Interleukin 11 (IL11) / adjusted significance (p) value, Interleukin 12B (IL12b) / adjusted significance (p) value, Interleukin 18 Receptor 1 (IL18r1) / adjusted significance (p) value, TNF Receptor Superfamily Member 10b (Tnfrsf10b) / adjusted significance (p) value, TNF Receptor Superfamily Member 11b (Tnfrsf11b) / adjusted significance (p) value, TNF Superfamily Member 9 (Tnfsf9) / adjusted significance (p) value, TNF Superfamily Member 18 (Tnfsf18): Direction: downregulated; for adjusted significance (p) value, Interleukin 36 Gamma (IL1f9) / adjusted significance (p) value, TNF Superfamily Member 15 (Tnfsf15): Direction: upregulated; for regulation of expression of members of the interleukin/interleukin receptor, TNF/TNF receptor, C-C and C-X-C motif chemokine families: lung, vs bleomycin alone disease group, significant = adjusted p value <0.10
# Protocol: Global gene expression changes were determined by Illumina Next Generation RNA sequencing in lung samples from the animal study described in Example 1. RNA was extracted from the post caval lobe that had been snap frozen at the termination of the study. For this analysis, 8 samples from each of treatment groups 1-6 (total 48 samples) were analysed. Briefly, total RNA was extracted for next generation sequencing using standard methods, then Illumina TruSeq RNA libraries including poly(A) enrichment were prepared. Sequencing was performed on an Illumina NextSeq 500, v2, high output, 1×75 bp reads with 30 Mio packages. Demultiplexing and trimming of Illumina adaptor residuals was performed on the raw data. Mapping of data reads was made using the reference mouse genome mm10. For bioinformatics analysis, the average expression level and standard deviations were determined for each gene for the 8 replicates per treatment group. Pairwise comparisons between groups were then performed to identify differentially expressed genes. Absolute p-values and adjusted p-values, to correct for multiplicity of testing, were calculated for each pairwise analysis.
# [3] = cited from earlier work; for reduction of the rate of decline in lung function: patients with IPF; for adverse events / side effects: treatment of IPF
Structure (SMILES),lung weights normalized to body weights [1],"fibrosis, group mean fibrotic index (modified Ashcroft score) [1]","adjusted significance (p) value, C-C Motif Chemokine Ligand 2 (Ccl2) [2]","adjusted significance (p) value, C-C Motif Chemokine Ligand 3 (Ccl3) [2]","adjusted significance (p) value, C-C Motif Chemokine Ligand 4 (Ccl4) [2]","adjusted significance (p) value, C-C Motif Chemokine Ligand 7 (Ccl7) [2]","adjusted significance (p) value, C-C Motif Chemokine Ligand 8 (Ccl8) [2]","adjusted significance (p) value, C-C Motif Chemokine Ligand 12 (Ccl12) [2]","adjusted significance (p) value, C-C Motif Chemokine Ligand 24 (Ccl24) [2]","adjusted significance (p) value, C-X-C Motif Chemokine Ligand 3 (Cxcl3) [2]","adjusted significance (p) value, C-X-C Motif Chemokine Ligand 5 (Cxcl5) [2]","adjusted significance (p) value, C-X-C Motif Chemokine Ligand 10 (Cxcl10) [2]","adjusted significance (p) value, Interleukin 6 (IL6) [2]","adjusted significance (p) value, Interleukin 11 (IL11) [2]","adjusted significance (p) value, Interleukin 12B (IL12b) [2]","adjusted significance (p) value, Interleukin 18 Receptor 1 (IL18r1) [2]","adjusted significance (p) value, TNF Receptor Superfamily Member 10b (Tnfrsf10b) [2]","adjusted significance (p) value, TNF Receptor Superfamily Member 11b (Tnfrsf11b) [2]","adjusted significance (p) value, TNF Superfamily Member 9 (Tnfsf9) [2]","adjusted significance (p) value, TNF Superfamily Member 18 (Tnfsf18) [2]",other results
CCc1ccc(CCOc2ccc(CC3SC(=O)NC3=O)cc2)nc1 (centres unmarked) [Pioglitazone],Substantially lower normalized lung weights,Substantially less fibrosis,NS (NS = adjusted p value > 0.10),NS (NS = adjusted p value > 0.10),NS (NS = adjusted p value > 0.10),NS (NS = adjusted p value > 0.10),NS (NS = adjusted p value > 0.10),NS (NS = adjusted p value > 0.10),NS (NS = adjusted p value > 0.10),NS (NS = adjusted p value > 0.10),NS (NS = adjusted p value > 0.10),NS (NS = adjusted p value > 0.10),NS (NS = adjusted p value > 0.10),NS (NS = adjusted p value > 0.10),NS (NS = adjusted p value > 0.10),NS (NS = adjusted p value > 0.10),NS (NS = adjusted p value > 0.10),NS (NS = adjusted p value > 0.10),NS (NS = adjusted p value > 0.10),NS (NS = adjusted p value > 0.10),"adjusted significance (p) value, Interleukin 36 Gamma (IL1f9) [2]: NS (NS = adjusted p value > 0.10); adjusted significance (p) value, TNF Superfamily Member 15 (Tnfsf15) [2]: NS (NS = adjusted p value > 0.10); regulation of expression of members of the interleukin/interleukin receptor, TNF/TNF receptor, C-C and C-X-C motif chemokine families [2]: Neither pioglitazone or pamapimod single treatments significantly regulated expression"
"COC(=O)c1ccc2c(c1)NC(=O)/C2=C(\Nc1ccc(N(C)C(=O)CN2CCN(C)CC2)cc1)c1ccccc1 [nintedanib, Nintedanib]",,,,,,,,,,,,,,,,,,,,,reduction of the rate of decline in lung function [3]: approximately 50%; adverse events / side effects [3]: significant systemic adverse events
"Cc1ccc(=O)n(-c2ccccc2)c1 [pirfenidone, Pirfenidone]",,,,,,,,,,,,,,,,,,,,,reduction of the rate of decline in lung function [3]: approximately 50%; adverse events / side effects [3]: significant side effects
"Cn1c(=O)c(Oc2ccc(F)cc2F)cc2cnc(NC(CCO)CCO)nc21 [Pamapimod, 6-(2,4-Difluorophenoxy)-2-[3-hydroxy-1-(2-hydroxyethyl)-propylamino]-8-methyl-8H-pyrido[2,3-d]pyrimidin-7-one]",Substantially lower normalized lung weights,Substantially less fibrosis,NS (NS = adjusted p value > 0.10),NS (NS = adjusted p value > 0.10),0.042,NS (NS = adjusted p value > 0.10),NS (NS = adjusted p value > 0.10),NS (NS = adjusted p value > 0.10),0.032,NS (NS = adjusted p value > 0.10),NS (NS = adjusted p value > 0.10),NS (NS = adjusted p value > 0.10),NS (NS = adjusted p value > 0.10),NS (NS = adjusted p value > 0.10),0.023,NS (NS = adjusted p value > 0.10),NS (NS = adjusted p value > 0.10),NS (NS = adjusted p value > 0.10),NS (NS = adjusted p value > 0.10),NS (NS = adjusted p value > 0.10),"adjusted significance (p) value, Interleukin 36 Gamma (IL1f9) [2]: NS (NS = adjusted p value > 0.10); adjusted significance (p) value, TNF Superfamily Member 15 (Tnfsf15) [2]: 0.0079; regulation of expression of members of the interleukin/interleukin receptor, TNF/TNF receptor, C-C and C-X-C motif chemokine families [2]: Neither pioglitazone or pamapimod single treatments significantly regulated expression"
